These results are taken from patent US10261017B2, “Methods for detecting and categorizing skin sensitizers” (University of Mississippi, priority 2014, dated 2019).

The structures appear in SMILES notation. “And” between values parts separate entries of the source, which are not always exact repeats. Identical values can stand only once. Like-named read-outs stand apart in the source and are kept apart here. Marks after values point to notes of the source that are not given here.

The nature of data set [1]: NMR method: depletion of electrophile signal on reaction with DCYA. An excerpt: The described example can be applied to pure chemicals and mixtures. The method includes the acquisition of at least one NMR spectrum, mixing an electrophile and a nucleophile to acquire an array of control spectra and an addition of catalyst to record an array of reaction spectra. It also includes the quantification of at least one signal and the comparison of the signal with a control and the classification of the reaction based on the depletion of potential sensitizer based on the quantified residual signal.
2,5-Dimethylfuran was used as internal standard. When necessary, characterization of the product(s) formed during the reaction(s) was performed by homonuclear ^1H connectivities using 2D-COSY experiments. […] Two- and three bond ^1H-^13C connectivities were determined by gradient-HMBC experiments in which the evolution period for long-range ^1H-^13C coupling constants was optimized for a ^2,3JC,H of 8 Hz. Through-space ^1H connectivities were determined using a NOESY experiment with a mixing time of 0.450 s. […] Toronto, Canada].
In a 3 mm NMR tube, 1 volume of DCYA (100) mM in CDCl3) was mixed with one volume of sensitizer (100 mM in CDCl3) to give a final concentration of 50 mM for both DCYA and the sensitizer. Control ^1H NMR spectra (reference spectra) were recorded at regular intervals of for a minimum of 5 min. […] All spectra were recorded at constant temperature. All experiments were conducted using the manufacturer's standard presaturation pulse programs and experimental conditions were chosen as explained in NMR spectroscopy section. The progress of the reaction was followed by the diminished peak areas of the resonances for the signal of interest. The spectra were phased, referenced, and integrated using NMR data elaboration software. The structural characterizations of the resulting adducts were confirmed by conducting additional 2D-NMR experiments when necessary.
Covalent reaction of DCYA with carvone is dependent on the activation of the nucleophilic group (ex. sulfhydryl group to the reactive thio-anion) under basic conditions. This reaction is strongly dependent on the nature of the nucleophile and may be modulated by careful choice of the model nucleophile and the reaction conditions.
The control spectra are used as reference spectra (FIG. 3A). All the spectra were subjected to automatic phase and baseline correction using a Bernstein polynomial fit (order 3). After these two steps, all the spectra were integrated over the areas of interest. […] Both vinylic and adduct peak areas were normalized relative to the internal standard signal peaks. […] The concentrations of both electrophile and adduct were then plotted as percentage against time (in minutes). (FIG. 5).

The conditions of data set [2]: cited from earlier work.
A short description of data set [3]: Microplate spectrophotometric method (DCYA assay), fluorescence end-point. Conditions: for DCYA 100-RI: RI = reactivity index, 2 equiv. electrophile, pH 10 buffer; for DCYA assay reactivity / classification in words: microplate spectrophotometric method.
For data set [4] the following is noted: pH 10.
Data set [5] deals with thiol peptide.
For data set [6] the following is noted: mouse, in vivo; cited from earlier work.
The subject of data set [7] is thiol peptide. The settings on record: cited from earlier work.
In data set [8] the test system is ARE-dependent gene activity in a recombinant cell line. The settings on record: cited from earlier work.
Data set [9] is described as follows: TLC monitoring of DCYA reactions with electrophiles. Conditions: pH 10 buffer, 1-2.5 equiv. electrophile.
Text: For visualization purposes, the controls, blank and reactions were monitored by TLC on silica gel plates. A known volume of each sample was loaded on a silica gel plate and eluted with appropriate solvent system. The TLC plates were examined λ366 for the presence of the yellow fluorescence spots corresponding DCYA, its dimer or possible reaction products.
In order to minimize the competition between auto-dimerization [(DCYA)2] and nucleophilic addition, the reaction time and the electrophile:nucleophile stoichiometry were optimized. Massoia lactone at different concentrations was used to monitor the progress of the reaction by TLC (FIG. 11). […] In order to adequately discriminate between compounds with variable electrophilic strength, the assay was optimized using 2 equivalents of electrophile.
The nature of data set [10]: Fluorescent response of DCYA in acetonitrile over time. The class given is physicochemical. The settings on record: micromolar solutions, after 3 h at room temperature. How it is done:
The fluorescent responses of DCYA and DCYA disulfide in ACN were investigated at different concentrations using 1-300 μL/well in a 96 microplate reader at room temperature. Pure acetonitrile was used as a solvent control. The optimum excitation and emission wavelength combination was determined by performing excitation and emission scans. […] At these wavelengths, no solvent interference was observed. […] A linear response for DCYA was observed between 5-80 μM ([…]) concentrations with a R^2=0.995.

Where [11] appears, read: conversion of test chemical at 90 min, 1 equiv. DCYA, 0.1 equiv. DBN, CDCl3.

`C=C1C(=O)O[C@@H]2/C=C(\C)CC/C=C(\C)CC[C@@H]12` [Costunolide]: the “NMR Classification” value in [1] is “Strong”. In addition, the “NMR Method conversion” value in [1] (10 min, 50 mM) is listed as >97* %. For the same compound, the “Conversion at t30 (depletion of electrophile signal)” value (from here on “Conversion at t30”) in [1] (30 min, 50 mM) is recorded as 97%. Further, the “Result in human patch tests” value in data set [2] (reported in literature) is reported as “Positive in human patch tests^6”. Moreover, in data set [3], the “DCYA 100-RI” value is recorded as −8.5 and the “DCYA assay reactivity / classification in words” value is “strongly reactive”. For the same compound, the “DCYA binary classification: FN” value in data set [3] (false negative) came out at 0. Also, in data set [3] (false positive), the “DCYA binary classification: FP” value is given as 0. In data set [3] (listed as costunolide), the “DCYA assay reactivity / classification in words” value was “strong sensitizers”. The “DCYA binary classification: TN” value in data set [3] (true negative) stood at 0. In addition, the “DCYA binary classification: TP” value in [3] (true positive, positive if 100-RI <95) worked out at 1.
For `O=c1c(O)c(O)c1=O` [Squaric acid], the “DCYA 100-RI” value in data set [4] is recorded as 91.1. Further, in the data set on thiol peptide [5], the “Cys-DPRA binary classification: FN” value is reported as 0, the “Cys-DPRA binary classification: FP” value was 0, the “Cys-DPRA binary classification: TN” value is on record as 0 and the “Cys-DPRA binary classification: TP” value is recorded as 1. In addition, the LLNA EC3 in [6] is 4.3%. Also, the “Cys-DPRA % Pept. remain.” value in the data set with thiol peptide [7] is given as 53.1%. Further, the “KeratinoSens ™ EC3” value in [8] was greater than 2000 µM.
On to `CCCCC[C@@H]1CC=CC(=O)O1` [Massoia lactone], for which the “NMR assay reactivity / classification in words” value in [1] is recorded as “moderate to strong skin sensitizer”. In addition, the “Conversion at t30” value in data set [1] (at 30 min, 1 equiv. DCYA, listed as Massoialactone) worked out at 59%; in data set [1] (at 30 min, 1 equiv. DCYA, listed as massoia lactone), 60%. For the same compound, the “NMR Classification” value in [1] (based on depletion of electrophile signal at 30 min) was “Moderate-strong”. For the same compound, the “NMR Method conversion” value in data set [1] (setting [11]) is on record as 66%. Besides, the “TLC: adduct formation with DCYA” value in data set [9] is listed as “only a partial reaction was achieved”. Besides, the “Fluorescence response, Reaction (R), average of 9 readings” value in data set [3] (DCYA + test article + pH 10 buffer + resin, listed as ML) is 6064.127 RFU and 6064 RFU. Moreover, the “DCYA 100-RI” value in data set [3] amounted to 12.8.
Regarding `CN(C)c1cccc2c(S(=O)(=O)NCCS)cccc12` [DCYA, 5-(dimethylamino)-N-(2-mercaptoethyl)naphthalene-1-sulfonamide], in data set [10], the “Loss of fluorescence response” value is given as 1.5-3.0%.
As for `C=C1C(=O)O[C@@H]2C[C@@]3(C)CCC[C@H](C)C3=C[C@H]12` [Alantolactone], in data set [1], the “Conversion at t30” value amounted to 99%, the “NMR Classification” value is given as “Strong” and the “NMR Method conversion” value was >99* %. In addition, the “DCYA 100-RI” value in data set [4] is −6.7. In [2] (in vivo), the “Result in human patch tests” value was “Positive in human patch tests^6”.
For the compound `O=CC=Cc1ccccc1` [Cinnamaldehyde], in [1], the “NMR Classification” value is on record as “Moderate” and the “NMR assay reactivity / classification in words” value is on record as “moderate sensitizer”. Further, in data set [1] (at 30 min, 1 equiv. DCYA), the “Conversion at t30” value is recorded as 50%. Moreover, in data set [1] (setting [11]), the “NMR Method conversion” value came to 50%. Further, in data set [4] (2.1 mM), the “DCYA 100-RI” value was 85.1, the “DCYA binary classification: FN” value was determined as 0, the “DCYA binary classification: FP” value is listed as 0 and the “DCYA binary classification: TN” value turned out to be 0. The “DCYA binary classification: TP” value in [4] (2.1 mM) was found to be 1. Moreover, in the data set with thiol peptide [5], the “Cys-DPRA binary classification: FN” value is on record as 0, the “Cys-DPRA binary classification: FP” value amounted to 0, the “Cys-DPRA binary classification: TN” value was 0 and the “Cys-DPRA binary classification: TP” value stood at 1. Further, in data set [6], the LLNA (EC3) was 3%, the “LLNA Classification” value is “Moderate” and the LLNA EC3 is 3%. Besides, in the data set on thiol peptide [7], the “Cys-DPRA % Pept. remain.” value is recorded as 29.4% and the “Cys-DPRA, percentage of thiol peptide depleted” value is 70.6%. In addition, the “KeratinoSens ™ EC3” value in [8] was 63.94 µM.
